Reference: PubChem BioAssay (NCI)
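96-well plates; 48 h exposure; 5 concentrations. Endpoints by linear interpolation between flanking doses. Not reached: highest tested concentration assigned. TGI: total growth inhibition.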

Tests used:
Assay in all cases: inhibition of tumour cell growth, NCI panel, 48 h
[1] = test system: SW-620 colon
[2] = test system: MDA-MB-231 breast
[3] = test system: PC-3 prostate
[4] = test system: ACHN renal
[5] = test system: MDA-N
[6] = test system: LOX IMVI melanoma
[7] = test system: U251 CNS
[8] = test system: RXF 393 renal
[9] = test system: HL-60(TB) leukemia
[10] = test system: EKVX NSCLC
[11] = test system: CAKI-1 renal
[12] = test system: SK-MEL-2 melanoma
[13] = test system: COLO 205 colon
[14] = test system: A498 renal
[15] = test system: SF-268 CNS
[16] = test system: NCI/ADR-RES ovarian
[17] = test system: SR leukemia
[18] = test system: NCI-H226 lung
[19] = test system: SF-539 CNS
[20] = test system: UACC-257 melanoma
[21] = test system: SK-MEL-28 melanoma
[22] = test system: MALME-3M melanoma
[23] = test system: MDA-MB-435
[24] = test system: UO-31 renal
[25] = test system: SNB-19 CNS
[26] = test system: SN12C renal
[27] = test system: T-47D breast
[28] = test system: HOP-92 NSCLC
[29] = test system: HCT-116 colon
[30] = test system: CCRF-CEM leukemia
[31] = test system: OVCAR-8 ovarian
[32] = test system: HCT-15 colon
[33] = test system: BT-549 breast
[34] = test system: SF-295 CNS
[35] = test system: OVCAR-3 ovarian
[36] = test system: SK-OV-3 ovarian
[37] = test system: SK-MEL-5 melanoma
[38] = test system: NCI-H460 lung
[39] = test system: KM12 colon
[40] = test system: OVCAR-4 ovarian
[41] = test system: M14 melanoma
[42] = test system: K-562 leukemia
[43] = test system: RPMI-8226 leukemia
[44] = test system: NCI-H23 lung
[45] = test system: HT29 colon
[46] = test system: MOLT-4 leukemia
[47] = test system: DU-145 prostate
[48] = test system: HS 578T breast
[49] = test system: NCI-H522 lung
[50] = test system: HOP-62 NSCLC
[51] = test system: 786-0 renal
[52] = test system: TK-10 renal
[53] = test system: SNB-75 CNS
[54] = test system: A549 NSCLC
[55] = test system: IGROV1 ovarian
[56] = test system: OVCAR-5 ovarian
[57] = test system: UACC-62 melanoma
[58] = test system: HCC-2998 colon
[59] = test system: MCF7 breast

Cc1ccc(OCC2=NC3S/C(=C/c4ccc([N+](=O)[O-])o4)C(=O)N3N2)cc1 (stereo not drawn)
TGI [1]: 15 µM | TGI [2]: 26.6 µM | TGI [3]: 18.2 µM | TGI [4]: 3.14 µM | TGI [5]: 20.7 µM | TGI [6]: 13.3 µM | TGI [7]: 29.5 µM | TGI [8]: 28.5 µM | TGI [9]: 5.34 µM | TGI [10]: 24.5 µM | TGI [11]: 32 µM | TGI [12]: 31.7 µM | TGI [13]: 11.6 µM | TGI [14]: 37.8 µM | TGI [15]: 14.9 µM | TGI [16]: 33.2 µM | TGI [17]: 11.4 µM | TGI [18]: 33.3 µM | TGI [19]: 4.3 µM | TGI [20]: 25.5 µM | TGI [21]: 30.5 µM | TGI [22]: 7.94 µM | TGI [23]: 19.8 µM | TGI [24]: 34.8 µM | TGI [25]: 32.2 µM | TGI [26]: 37 µM | TGI [27]: 5.39 µM | TGI [28]: 8.8 µM | TGI [29]: 15.9 µM | TGI [30]: 35.3 µM | TGI [31]: 14.3 µM | TGI [32]: 7.04 µM | TGI [33]: 25.1 µM | TGI [34]: 30.4 µM | TGI [35]: 4.12 µM | TGI [36]: 29.9 µM | TGI [37]: 21.3 µM | TGI [38]: 41.6 µM | TGI [39]: 32 µM | TGI [40]: 7.86 µM | TGI [41]: 23.6 µM | TGI [42]: 3.98 µM | TGI [43]: 6.16 µM | TGI [44]: 28.8 µM | TGI [45]: 22.6 µM | TGI [46]: 6.94 µM | TGI [47]: 20.5 µM | TGI [48]: 89 µM | TGI [49]: 4.37 µM | TGI [50]: 33.7 µM | TGI [51]: 23.7 µM | TGI [52]: 30.1 µM | TGI [53]: 30 µM | TGI [54]: 38.9 µM | TGI [55]: 22.5 µM | TGI [56]: 35.2 µM

C[C@H](CS)C(=O)N1c2ccccc2C[C@H]1C(=O)O
TGI [1]: > 100 µM | TGI [2]: > 100 µM | TGI [3]: > 100 µM | TGI [4]: > 100 µM | TGI [5]: > 100 µM | TGI [7]: > 100 µM | TGI [9]: > 100 µM | TGI [10]: > 100 µM | TGI [11]: > 100 µM | TGI [12]: > 100 µM | TGI [13]: > 100 µM | TGI [14]: > 100 µM | TGI [15]: > 100 µM | TGI [16]: > 100 µM | TGI [17]: > 100 µM | TGI [18]: > 100 µM | TGI [19]: > 100 µM | TGI [20]: > 100 µM | TGI [21]: > 100 µM | TGI [24]: > 100 µM | TGI [25]: > 100 µM | TGI [26]: > 100 µM | TGI [27]: > 100 µM | TGI [29]: > 100 µM | TGI [30]: > 100 µM | TGI [31]: > 100 µM | TGI [32]: > 100 µM | TGI [33]: > 100 µM | TGI [34]: > 100 µM | TGI [35]: > 100 µM | TGI [36]: > 100 µM | TGI [37]: > 100 µM | TGI [38]: > 100 µM | TGI [39]: > 100 µM | TGI [40]: > 100 µM | TGI [57]: > 100 µM | TGI [42]: > 100 µM | TGI [58]: > 100 µM | TGI [44]: > 100 µM | TGI [45]: > 100 µM | TGI [46]: > 100 µM | TGI [47]: > 100 µM | TGI [48]: > 100 µM | TGI [49]: > 100 µM | TGI [50]: > 100 µM | TGI [51]: > 100 µM | TGI [52]: > 100 µM | TGI [53]: > 100 µM | TGI [54]: > 100 µM | TGI [59]: > 100 µM | TGI [55]: > 100 µM | TGI [56]: > 100 µM
